Converted amounts (≈) assume the structure as drawn. Read-outs that look alike come from different tables or passages of the source.
Key:
Providencia sp. 2991 = assay: Minimum growth-inhibitory concentration, standard serial dilution assay; assay type: cell-based
Method: (§1) That is, a test was conducted to measure the minimum growth-inhibitory concentrations (MIC, mcg/ml) of these compounds against some microorganisms using a standard serial dilution assay method.

[1] = system: Providencia rettgeri GN466; assay: as above; assay type: cell-based
Method: as §1

[2] = Stability in aqueous hydrochloric acid solution (pH 2), followed by thin-layer silica gel chromatography; assay type: physicochemical; conditions: water acidified with hydrochloric acid, pH 2, 25°C
Method: The test was carried out in accordance with the following method.
An aqueous solution (pH 2) of the test compound dissolved in water as acidified with hydrochloric acid was kept at 25°C, from which samples were taken out with time for analizing by thin-layer silica gel chromatography using acetonitrile-0.2 M aqueous ammonium chloride (3:1) as the development solvent. The spot of the test compound on the silica gel thin-layer was detected by using UV method, staining tests with conc. sulfuric acid and coloring tests with aqueous ammonium molybdate sulfuric acid solution, in combination, whereby the time (in hour) required for the test compound to disappear completely in the aqueous hydrochloric acid solution was determined. By way of comparison, coformycin and pentostatin were also tested by the same method.

Escherichia coli = assay: Antibacterial activity of formycin A against Escherichia coli on bouillon-agar medium, with and without test compound; assay type: cell-based; conditions: for growth of Escherichia coli where test compound had permeated medium containing formycin A: test compound 1 mcg/ml, formycin A 100 mcg/ml in bouillon-agar medium, about 37°C
Method: In this test, an aqueous solution of each of the compounds to be tested, i.e. FCF, e-FCF, Ara-FCF or Ara-e-FCF, at a concentration of 1 mcg/ml, was added in the form of several drops on the surface of a bouillon-agar medium containing formycin A at a concentration of 100 mcg/ml to form a circular film of the said aqueous solution thereon. Then, the medium was allowed to stand to make the test compound permeate into the bouillon-agar layer. Subsequently, a strain of Escherichia coli was inoculated on the overall surface of said medium and the inoculated medium was incubated at about 37°C.

adenosine deaminase = target: T1, adenosine deaminase (Bos taurus, UniProt P56658); assay: Enzyme-inhibitory activity against adenosine deaminase (optical density at 265 nm); assay type: biochemical
T1 construct: purchased Sigma Chemical Type VI
T1 sequence (P56658 1-363): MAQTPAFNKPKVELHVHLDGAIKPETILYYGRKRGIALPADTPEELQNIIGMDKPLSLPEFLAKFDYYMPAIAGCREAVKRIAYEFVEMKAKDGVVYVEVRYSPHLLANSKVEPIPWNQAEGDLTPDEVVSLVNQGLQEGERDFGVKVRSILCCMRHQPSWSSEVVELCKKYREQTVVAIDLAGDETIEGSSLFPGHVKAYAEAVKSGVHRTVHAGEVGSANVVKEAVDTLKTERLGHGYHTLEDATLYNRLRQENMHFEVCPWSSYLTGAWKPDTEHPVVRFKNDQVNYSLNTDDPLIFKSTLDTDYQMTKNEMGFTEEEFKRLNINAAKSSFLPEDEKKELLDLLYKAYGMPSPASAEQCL
Method: The test of evaluating the inhibitory activity of each of the compounds against adenosine deaminase was carried out as given below.
Optical density of the reaction mixture obtained was measured with time (measured at the wave length of 265 nm), and the IC50 value of the tested compound against adenosine deaminase was calculated on the basis of decreases in the measured values of the optical density.

mice [3] = assay: Acute toxicity in mice, intraperitoneal administration; assay type: in vivo; conditions: 100 mg/kg
mice [4] = conditions: intravenous administration, cited from earlier work
[5] = phosphate buffer 0.05 M, pH 7.4, 25°C, 5 minutes pre-incubation, substrate adenosine, read-out: Enzyme-inhibitory activity, IC50

| SMILES | Time (hours) required for complete disappearance of test compound in aqueous solution at pH 2 at 25°C [2] [hours] | growth of Escherichia coli where test compound had permeated medium containing formycin A (Escherichia coli) | IC50 (adenosine deaminase; [5]) [nM] | also measured |
| --- | --- | --- | --- | --- |
| NC1O[C@H](CO)[C@@H](O)[C@@H]1F (stereo partly drawn) [2-deoxy-2-fluoro-α,β-D-arabinofuranosyl amine] | – | – | – | MIC (Providencia sp. 2991): 100 µg/mL (≈ 662 µM); MIC [1]: 50 µg/mL (≈ 331 µM) |
| NC1O[C@H](CO)[C@@H](O)[C@H]1F (stereo partly drawn) [2-deoxy-2-fluoro-α,β-D-ribofuranosyl amine] | – | – | – | MIC (Providencia sp. 2991): 100 µg/mL (≈ 662 µM); MIC [1]: 50 µg/mL (≈ 331 µM) |
| OC[C@H]1O[C@@H](n2cnc3c2N=CNC[C@H]3O)[C@@H](F)[C@@H]1O [Ara-FCF, (8R)-3-(2-deoxy-2-fluoro-β-D-arabinofuranosyl)-3,6,7,8-tetrahydroimidazo [4,5-d][1,3]diazepin-8-ol] | 15 | the bacteria could not grow to form the circular inhibition zone | 0.77 | acute toxicity (death of mice) (mice [3]): no death of the mice |
| OC[C@H]1O[C@@H](n2cnc3c2N=CNC[C@@H]3O)[C@@H](F)[C@@H]1O [Ara-e-FCF, (8S)-3-(2-deoxy-2-fluoro-β-D-arabinofuranosyl)-3,6,7,8-tetrahydroimidazo[4,5-d][1,3]diazepin-8-ol] | – | the bacteria could not grow to form the circular inhibition zone | 2200 | – |
| OC[C@H]1O[C@@H](n2cnc3c2N=CNC[C@H]3O)[C@H](O)[C@@H]1O [Coformycin, (8R)-3-(β-D-ribofuranosyl)-3,6,7,8-tetrahydroimidazo[4,5-d][1,3]diazepin-8-ol] | 10 | – | – | acute toxicity (death of mice) (mice [4]; 12.5 mg/kg): cause the death of mice; IC50 (adenosine deaminase): 1.7 nM |
| OC[C@H]1O[C@@H](n2cnc3c2N=CNC[C@H]3O)[C@H](F)[C@@H]1O [FCF, (8R)-3-(2-deoxy-2-fluoro-β-D-ribofuranosyl)-3,6,7,8-tetrahydroimidazo [4,5-d][1,3]diazepin-8-ol] | 15 | the bacteria could not grow to form the circular inhibition zone | 17 | – |
| OC[C@H]1O[C@@H](n2cnc3c2NC=NC[C@H]3O)C[C@@H]1O [Pentostatin, 2'-deoxycoformycin, reference compound] | 1 | – | – | acute toxicity (body weight of tested mice) (mice [4]; 25 mg/kg): cause the decrease in the body weight of tested mice |
| OC[C@H]1O[C@@H](n2cnc3c2N=CNC[C@@H]3O)[C@H](F)[C@@H]1O [e-FCF, (8S)-3-(2-deoxy-2-fluoro-β-D-ribofuranosyl)-3,6,7,8-tetrahydroimidazo [4,5-d][1,3]diazepin-8-ol] | – | the bacteria could not grow to form the circular inhibition zone | 100 | – |
| Nc1ncnc2c([C@@H]3O[C@H](CO)[C@@H](O)[C@H]3O)n[nH]c12 [formycin A] | – | – | – | antibacterial activity against Escherichia coli (Escherichia coli; formycin A alone at 100 mcg/ml): no antibacterial activity |

Reference: patent EP0643069B1, “2'-DEOXY-2'-FLUOROCOFORMYCIN AND STEREOISOMERS THEREOF” (priority 1991, dated 1993)
